According to patent US20260345510A1, “MEMBRANE COATED NANOPARTICLES FOR DRUG DELIVERY” (Arizona Board Regents on Behalf of Arizona State University, priority 2022, published 2026):

Tested on: PL-induced carotid atherosclerosis in the LCA
Assay: Plaque development in partially ligated LCA (long-term experiment)
Type: in vivo, mouse (ApoE−/−)
Settings: free drug counterpart, repeated doses, without photoactivation
From the text: All animal experiments performed in this study have been approved by the Institutional Animal Care and Use Committee (IACUC) of Arizona State University, USA. Male ApoE^−/− mice (8-12 weeks old), purchased from The Jackson Laboratory, were subjected to the partial ligation (PL) procedure to induce inflammation and carotid atherosclerosis in the left carotid artery (LCA). All mice were fed a high-fat diet (Envigo #TD.88137) for 1 week prior to the PL procedure and continued to be fed the same diet until the time of euthanasia. […] For biodistribution analysis, MoNP-DiD was administered via retro-orbital injection to mice that underwent the PL 1 week prior. The arterial tissue (from carotid bifurcation to abdominal aorta) and organs were harvested 4 hours after the injection, and DiD intensity was quantified for each of the three individual zones within the arterial segments using fluorescent imaging. Subsequently, the left common CA was embedded in Tissue-Tek O.C.T. compound, cryosectioned, and stained with a CD31 antibody (R&D Systems #AF3628) and DAPI. For organ assessment, various tissues (kidney, lung, heart, gut, liver, and spleen) and plasma were homogenized, and the fluorescent intensity in homogenized tissues was measured. […] Serum samples isolated from the mice were analyzed to determine their lipid profile and metabolic panel. […]

For Verteporfin [free VP], the plaque sizes was “little-to-no effect on plaque sizes”.
